{
  "source": "paper PMC7594198",
  "about": "(International Journal of Nanomedicine, 2020)",
  "molecules": {"B1": {"name": "human cytokeratin 19 (protein, UniProt P08727 1-400, looked up)", "Keratin, type I cytoskeletal …": "MTSYSYRQSSATSSFGGLGGGSVRFGPGVAFRAPSIHGGSGGRGVSVSSARFVSSSSSGAYGGGYGGVLTASDGLLAGNEKLTMQNLNDRLASYLDKVRALEAANGELEVKIRDWYQKQGPGPSRDYSHYYTTIQDLRDKILGATIENSRIVLQIDNARLAADDFRTKFETEQALRMSVEADINGLRRVLDELTLARTDLEMQIEGLKEELAYLKKNHEEEISTLRGQVGGQVSVEVDSAPGTDLAKILSDMRSQYEVMAEQNRKDAEAWFTSRTEELNREVAGHTEQLQMSRSEVTDLRRTLQGLEIELQSQLSMKAALEDTLAETEARFGAQLAHIQALISGIEAQLGDVRADSERQNQEYQRLMDIKSRLEQEIATYRSLLEGQEDHYNNLSASKVL"}},
  "key": {"hCG protein [1]": {"target": "T1, hCG protein (Homo sapiens, UniProt P01215+P0DN86)", "T1 sequence (P01215 25-116, other chains not shown)": "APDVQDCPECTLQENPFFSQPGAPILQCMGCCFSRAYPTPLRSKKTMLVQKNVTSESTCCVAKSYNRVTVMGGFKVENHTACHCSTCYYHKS", "test": "SPR kinetics of peptide-hCG binding, GO-based chip, PBS buffer", "details": "hCG 10 pM-1 nM, 30 μL/min, 1:1 Langmuir model"}, "hCG protein [2]": {"target": "T1, hCG protein", "test": "SPR kinetics of peptide-hCG binding, carboxyl-GO chip, clinical serum samples"}, "[3]": {"tested_on": "peptide probe immobilized on carboxyl-GO chip", "test": "SPR selectivity test with interfering proteins, PBS buffer", "assay_type": "binding", "details": "for interference signal: 500 pM, carboxyl-GO-based SPR aptasensor, PBS and spiked 10% serum; for average SPR angle shift: protein 500 pM, PBS buffer, 60 μL/min, measured six times"}, "[4]": {"tested_on": "peptide probe immobilized on carboxyl-GO chip", "test": "SPR selectivity test with interfering proteins, spiked 10% serum", "assay_type": "binding", "details": "protein 500 pM, 60 μL/min, measured six times"}},
  "data": [
    {"molecule": "H-PPLRINRHILTR-OH [peptide]", "values": [
      {"measurement": "KA", "setting": "hCG protein [1]", "value": "1.41e+10", "unit": "M⁻¹"},
      {"measurement": "ka", "setting": "hCG protein [1]", "value": "7.32 ×10^6 M^−1S^−1"},
      {"measurement": "kd", "setting": "hCG protein [1]", "value": "5.22 ×10^−4 S^−1"},
      {"measurement": "binding constant KA", "setting": "hCG protein [2]; serum FDSW-1, 19 weeks", "value": "7.22e+10", "unit": "M⁻¹"},
      {"measurement": "binding constant KA", "setting": "hCG protein [2]; serum FDSW-2, 14 weeks", "value": "9.39e+10", "unit": "M⁻¹"},
      {"measurement": "binding constant KA", "setting": "hCG protein [2]; serum FDSW-3, 12 weeks", "value": "2.033e+11", "unit": "M⁻¹"},
      {"measurement": "binding constant KA", "setting": "hCG protein [2]; serum FDSW-4, 12 weeks", "value": "5.71e+10", "unit": "M⁻¹"},
      {"measurement": "binding constant KA", "setting": "hCG protein [2]; serum FDSW-5, 16 weeks", "value": "5.14e+10", "unit": "M⁻¹"},
      {"measurement": "binding constant KA", "setting": "hCG protein [2]; serum FDSW-6, 17 weeks", "value": "1.39e+11", "unit": "M⁻¹"},
      {"measurement": "binding constant KA", "setting": "hCG protein [2]; serum NPW-1, 15 weeks", "value": "2.819e+11", "unit": "M⁻¹"},
      {"measurement": "binding constant KA", "setting": "hCG protein [2]; serum NPW-2, 12 weeks", "value": "2.763e+11", "unit": "M⁻¹"},
      {"measurement": "binding constant KA", "setting": "hCG protein [2]; serum NPW-3, 14 weeks", "value": "1.28e+10", "unit": "M⁻¹"},
      {"measurement": "binding constant KA", "setting": "hCG protein [2]; serum NPW-4, 17 weeks", "value": "1.48e+10", "unit": "M⁻¹"}
    ]},
    {"molecule": "bovine serum albumin [BSA]", "values": [
      {"measurement": "interference signal", "setting": "[3]", "value": "close to that of a blank solution"},
      {"measurement": "average SPR angle shift", "setting": "[3]", "value": 1.31, "unit": "m^o"},
      {"measurement": "average SPR angle shift", "setting": "[4]", "value": 2.60, "unit": "m^o"}
    ]},
    {"molecule": "pregnancy-associated plasma protein A2 [PAPP-A2]", "values": [
      {"measurement": "interference signal", "setting": "[3]", "value": "close to that of a blank solution"},
      {"measurement": "average SPR angle shift", "setting": "[3]", "value": 2.39, "unit": "m^o"},
      {"measurement": "average SPR angle shift", "setting": "[4]", "value": 2.51, "unit": "m^o"}
    ]},
    {"molecule": "pregnancy-associated plasma protein A [PAPP-A]", "values": [
      {"measurement": "interference signal", "setting": "[3]", "value": "close to that of a blank solution"},
      {"measurement": "average SPR angle shift", "setting": "[3]", "value": 1.37, "unit": "m^o"},
      {"measurement": "average SPR angle shift", "setting": "[4]", "value": 2.42, "unit": "m^o"}
    ]},
    {"molecule": "B1", "values": [
      {"measurement": "interference signal", "setting": "[3]", "value": "close to that of a blank solution"},
      {"measurement": "average SPR angle shift", "setting": "[3]", "value": 1.65, "unit": "m^o"},
      {"measurement": "average SPR angle shift", "setting": "[4]", "value": 1.74, "unit": "m^o"}
    ]}
  ]
}
